Test results from patent US20100035932A1, “NOVEL FORMYL PEPTIDE RECEPTOR LIKE 1 AGONISTS THAT INDUCE MACROPHAGE TUMOR NECROSIS FACTOR ALPHA AND COMPUTATIONAL STRUCTURE-ACTIVITY RELATIONSHIP ANALYSIS OF THEREOF” (priority 2008, published 2010).

tested on: human neutrophils; assay: Ca2+ mobilization in human neutrophils (FLIPR Calcium 3); details: Neutrophil, read-out: [Ca2+]i EC50

Row | Compound | EC50
1 | COc1cc(/C=N\NC(=O)c2cccc(C)c2O)ccc1OCc1ccccc1 [Compound 25] | 0.74 µM
2 | COc1ccc(C(=O)N/N=C\c2ccc(N(C)C)cc2)cc1 [Compound 26] | 3 µM
3 | O=C(N/N=C/c1cc(Br)cc(I)c1O)c1ccc2c(c1)OCCO2 [Compound 27] | 8 µM
4 | O=C(N/N=C/c1cc(/N=N\c2cccc(C(F)(F)F)c2)ccc1O)c1ccc2c(c1)OCO2 [Compound 28] | 8.5 µM
5 | O=C(N/N=C1\C(=O)N(Cc2cccc3ccccc23)c2ccccc21)c1ccc2c(c1)OCO2 [Compound 29] | 9.3 µM
6 | O=C(N/N=C/c1cc(Br)c(Br)o1)c1ccc2c(c1)OCCO2 [Compound 30] | 9.8 µM
7 | O=C(/C=C/c1ccco1)Oc1cccc(/C=N/NC(=O)c2ccc3c(c2)OCO3)c1 [Compound 31] | 12.4 µM
8 | O=C(N/N=C/c1ccc(-c2ccc(O)c(C(=O)O)c2)o1)c1cccnc1 [Compound 32] | 12.5 µM
9 | CN(C)c1ccc(/C=N\NC(=O)c2cccc(F)c2)cc1 [Compound 33] | 13.1 µM
10 | CN(C)c1ccc(/C=N/NC(=O)c2ccc3c(c2)OCO3)cc1 [Compound 34] | 17.9 µM

tested on: J774.A1 macrophages; assay: TNF-α production in J774.A1 macrophages (ELISA); format: cell-based, murine; details: 50 μM compound, above response to vehicle (DMSO) control; Table 5 numbering; N.A. = inactive

Row | Compound | FI (fold-increase of macrophage TNF-α production)
11 | 4-fluoro-benzoic acid [5-(3-trifluoromethyl-phenyl)-2-furyl]methylene-hydrazide [Compound 2] | 60 fold-increase

same assay, conditions: 50 μM, 24 hr

Row | Compound | TNF-α production by peptide agonists
12 | CSCC[C@H](NC=O)C(=O)N[C@@H](CC(C)C)C(=O)N[C@@H](Cc1ccccc1)C(=O)O [fMLF, N-formyl-Met-Leu-Phe, reference compound] | failed to induce macrophage TNF-α production

same assay, conditions: Mus musculus, J774.A1, 24 h, read-out: TNF-α production

Row | Compound | fold induction at 50 µM
13 | O=C(N/N=C/c1ccc([N+](=O)[O-])o1)c1cccc([N+](=O)[O-])c1 [Compound 23] | < 2

same assay, conditions: Mus musculus, J774.A1, 24 h; 50 μM compound, above response to vehicle (DMSO) control; Table 5 numbering; N.A. = inactive; read-out: FI (fold-increase of macrophage TNF-α production)

Row | Compound | fold induction at 50 µM
14 | Cc1ccc(-c2ccc(/C=N/NC(=O)c3ccncc3)o2)cc1Cl [Compound 51] | 50
15 | O=C(N/N=C/c1ccc(-c2cccc(C(F)(F)F)c2)o1)c1ccc(Br)cc1 [Compound 52] | 35
16 | CN(C)c1ccc(/C=N\NC(=O)c2ccc([N+](=O)[O-])cc2)cc1 [Compound 53] | 25
17 | COc1cc(/C=N\NC(=O)c2ccc3c(c2)OCO3)ccc1OCc1ccccc1 [Compound 54] | 7
18 | O=C(N/N=C/c1ccc(-c2ccc(Cl)c(Cl)c2)o1)c1ccc2c(c1)OCO2 [Compound 55] | < 5
19 | CCOc1cc(/C=N\NC(=O)c2ccc3c(c2)OCO3)ccc1OC(=O)c1ccc(Br)cc1 [Compound 56] | < 5
20 | COc1ccc(-c2ccc(/C=N/NC(=O)c3ccc([N+](=O)[O-])cc3)o2)cc1Cl [Compound 57] | < 5
21 | O=C(N/N=C/c1cc(Br)c(Br)o1)c1ccc2c(c1)OCO2 [Compound 58] | < 5

same assay, conditions: Mus musculus, J774.A1, 24 h; relative fold of activation compared to vehicle (DMSO) control for 50 μM compound; N.A. = no activity was observed; read-out: TNF-α production

Row | Compound | fold induction at 50 µM
22 | CCOc1cc(/C=N\NC(=O)c2ccc3c(c2)OCO3)ccc1OC(=O)c1ccc(Br)cc1 [Compound 11] | < 5
23 | O=C(N/N=C/c1cc(Br)cc(Br)c1OC(=O)c1ccccc1)c1ccc2c(c1)OCO2 [Compound 12] | < 5
24 | O=C(N/N=C/c1ccc(-c2cccc(C(F)(F)F)c2)o1)c1cccc([N+](=O)[O-])c1 [Compound 13] | < 5
25 | O=C(N/N=C/c1ccc(-c2ccccc2Cl)o1)c1ccc(Cl)cc1Cl [Compound 14] | < 5
26 | O=C(N/N=C/c1ccc(-c2cccc(C(F)(F)F)c2)o1)c1cc(I)ccc1Cl [Compound 15] | < 5
27 | O=C(N/N=C/c1cc(Br)c(Br)o1)c1ccc2c(c1)OCO2 [Compound 16] | < 5
28 | Nc1ccc(C(=O)N/N=C/c2ccc(-c3ccc([N+](=O)[O-])cc3Cl)o2)cc1 [Compound 22] | < 2
29 | O=C(N/N=C/c1ccc(-c2ccc(Cl)cc2Cl)o1)c1ccc2c(c1)OCO2 [Compound 24] | < 2

same assay, conditions: experimentally determined class

Row | Compound | Determined class of macrophage TNF-α inducing activity
30 | 4-fluoro-benzoic acid [5-(3-trifluoromethyl-phenyl)-2-furyl]methylene-hydrazide [Compound 2] | Active
31 | Cc1ccc(-c2ccc(/C=N/NC(=O)c3ccncc3)o2)cc1Cl [Compound 51] | Active
32 | O=C(N/N=C/c1ccc(-c2cccc(C(F)(F)F)c2)o1)c1ccc(Br)cc1 [Compound 52] | Active
33 | CN(C)c1ccc(/C=N\NC(=O)c2ccc([N+](=O)[O-])cc2)cc1 [Compound 53] | Active
34 | COc1cc(/C=N\NC(=O)c2ccc3c(c2)OCO3)ccc1OCc1ccccc1 [Compound 54] | Active
35 | O=C(N/N=C/c1ccc(-c2ccc(Cl)c(Cl)c2)o1)c1ccc2c(c1)OCO2 [Compound 55] | Active
36 | CCOc1cc(/C=N\NC(=O)c2ccc3c(c2)OCO3)ccc1OC(=O)c1ccc(Br)cc1 [Compound 56] | Active
37 | COc1ccc(-c2ccc(/C=N/NC(=O)c3ccc([N+](=O)[O-])cc3)o2)cc1Cl [Compound 57] | Active
38 | O=C(N/N=C/c1cc(Br)c(Br)o1)c1ccc2c(c1)OCO2 [Compound 58] | Active
39 | O=C(/C=C/c1ccco1)Oc1cccc(/C=N/NC(=O)c2ccc3c(c2)OCO3)c1 [Compound 59] | NA (inactive derivatives were placed in the nonactive group labeled “NA”)
40 | COc1cc(/C=N\NC(=O)c2cccc(C)c2O)ccc1OCc1ccccc1 [Compound 60] | NA (inactive derivatives were placed in the nonactive group labeled “NA”)
41 | COc1ccc(C(=O)N/N=C\c2ccc(N(C)C)cc2)cc1 [Compound 61] | NA (inactive derivatives were placed in the nonactive group labeled “NA”)
42 | O=C(N/N=C/c1cc(Br)cc(I)c1O)c1ccc2c(c1)OCCO2 [Compound 62] | NA (inactive derivatives were placed in the nonactive group labeled “NA”)
43 | O=C(N/N=C/c1cc(/N=N\c2cccc(C(F)(F)F)c2)ccc1O)c1ccc2c(c1)OCO2 [Compound 63] | NA (inactive derivatives were placed in the nonactive group labeled “NA”)
44 | O=C(N/N=C1\C(=O)N(Cc2cccc3ccccc23)c2ccccc21)c1ccc2c(c1)OCO2 [Compound 64] | NA (inactive derivatives were placed in the nonactive group labeled “NA”)
45 | O=C(N/N=C/c1cc(Br)c(Br)o1)c1ccc2c(c1)OCCO2 [Compound 65] | NA (inactive derivatives were placed in the nonactive group labeled “NA”)
46 | CN(C)c1ccc(/C=N\NC(=O)c2cccc(F)c2)cc1 [Compound 66] | NA (inactive derivatives were placed in the nonactive group labeled “NA”)
47 | CN(C)c1ccc(/C=N/NC(=O)c2ccc3c(c2)OCO3)cc1 [Compound 67] | NA (inactive derivatives were placed in the nonactive group labeled “NA”)
48 | O=C(N/N=C/c1c(O)ccc2ccccc12)c1ccc2c(c1)OCO2 [Compound 68] | NA (inactive derivatives were placed in the nonactive group labeled “NA”)

Row | Compound | Determined class of macrophage TNF-α inducing activity
49 | COc1ccc(/C=N/NC(=O)c2ccc3c(c2)OCO3)c(OC)c1 [Compound 69] | NA (inactive derivatives were placed in the nonactive group labeled “NA”)
50 | COc1cc(/C=N\NC(=O)c2ccc3c(c2)OCO3)ccc1OC(=O)c1ccco1 [Compound 70] | NA (inactive derivatives were placed in the nonactive group labeled “NA”)
51 | O=C(/C=C\c1ccco1)Oc1ccc(/C=N\NC(=O)c2ccc3c(c2)OCO3)cc1 [Compound 71] | NA (inactive derivatives were placed in the nonactive group labeled “NA”)
52 | O=C(O)COc1ccccc1/C=N/NC(=O)c1ccc2c(c1)OCO2 [Compound 72] | NA (inactive derivatives were placed in the nonactive group labeled “NA”)
53 | CN(C)c1ccc(/C=N\NC(=O)c2ccccc2O)cc1 [Compound 73] | NA (inactive derivatives were placed in the nonactive group labeled “NA”)
54 | O=C(N/N=C/c1cc(/N=N\c2cccc3ccccc23)ccc1O)c1ccc2c(c1)OCO2 [Compound 74] | NA (inactive derivatives were placed in the nonactive group labeled “NA”)
55 | C/C(=N\NC(=O)c1ccc2c(c1)OCO2)c1cccc([N+](=O)[O-])c1 [Compound 75] | NA (inactive derivatives were placed in the nonactive group labeled “NA”)
56 | CC(C)N1C(=O)/C(=N\NC(=O)c2ccc3c(c2)OCO3)c2ccccc21 [Compound 76] | NA (inactive derivatives were placed in the nonactive group labeled “NA”)
57 | CCN1C(=O)/C(=N\NC(=O)c2ccc3c(c2)OCO3)c2ccccc21 [Compound 77] | NA (inactive derivatives were placed in the nonactive group labeled “NA”)
58 | COc1ccc(/C(C)=N/NC(=O)c2ccc3c(c2)OCCO3)cc1[N+](=O)[O-] [Compound 78] | NA (inactive derivatives were placed in the nonactive group labeled “NA”)
59 | COc1ccc(Cl)cc1/C=N/NC(=O)c1ccc2c(c1)OCCO2 [Compound 79] | NA (inactive derivatives were placed in the nonactive group labeled “NA”)
60 | CCOc1ncccc1C(=O)N/N=C/c1ccc([N+](=O)[O-])o1 [Compound 80] | NA (inactive derivatives were placed in the nonactive group labeled “NA”)
61 | O=C(N/N=C/c1ccco1)c1cccnc1 [Compound 81] | NA (inactive derivatives were placed in the nonactive group labeled “NA”)
62 | O=C(N/N=C/c1ccc(-c2ccc(Cl)c([N+](=O)[O-])c2)o1)c1ccc2c(c1)OCO2 [Compound 82] | NA (inactive derivatives were placed in the nonactive group labeled “NA”)
63 | O=C(N/N=C/c1ccc(-c2ccc(Cl)cc2)o1)c1ccncc1 [Compound 83] | NA (inactive derivatives were placed in the nonactive group labeled “NA”)
64 | O=C(N/N=C/c1ccc(-c2ccc(Cl)c(Cl)c2)o1)c1ccncc1 [Compound 84] | NA (inactive derivatives were placed in the nonactive group labeled “NA”)
65 | CCc1ccc(C(=O)N/N=C/c2ccc(-c3ccc(C)c(Cl)c3)o2)nc1 [Compound 85] | NA (inactive derivatives were placed in the nonactive group labeled “NA”)
66 | O=C(N/N=C/c1ccc(-c2cccc(Br)c2)o1)c1ccccn1 [Compound 86] | NA (inactive derivatives were placed in the nonactive group labeled “NA”)
